According to patent EP4722231A1, “BIOSYNTHESIS METHOD FOR BROAD-SPECTRUM ANTIVIRAL POLYPEPTIDE” (Shanxi Jinbo Bio-Pharmaceutical Co., Ltd., priority 2023, dated 2025):

Tested on: SARS-CoV-2 (D614G) pseudovirus
Conditions: 24 h

CC[C@H](C)[C@H](NC(=O)[C@H](C)NC(=O)[C@H](CCC(=O)O)NC(=O)[C@H](CCC(=O)O)NC(=O)[C@H](CC(C)C)NC(=O)[C@H](CCCCN)NC(=O)[C@H](CCCCN)NC(=O)[C@H](CCSC)NC(=O)[C@H](CCC(=O)O)NC(=O)[C@H](Cc1ccc(O)cc1)NC(=O)[C@H](CCC(=O)O)NC(=O)[C@H](CC(C)C)NC(=O)[C@H](CC(=O)O)NC(=O)[C@H](CC(C)C)NC(=O)[C@H](Cc1ccccc1)NC(=O)[C@@H](NC(=O)[C@@H](NC(=O)[C@H](CC(N)=O)NC(=O)[C@@H](NC(=O)[C@H](CCC(N)=O)NC(=O)[C@H](CC(=O)O)NC(=O)[C@H](CC(C)C)NC(=O)[C@H](CO)NC(C)=O)[C@@H](C)CC)C(C)C)[C@@H](C)O)C(=O)N[C@@H](CCCCN)C(=O)N[C@@H](CCCCN)C(=O)N[C@@H](CC(C)C)C(=O)N[C@@H](CCC(=O)O)C(=O)N[C@@H](CCC(=O)O)C(=O)N[C@@H](CO)C(=O)N[C@@H](Cc1ccc(O)cc1)C(=O)N[C@H](C(=O)N[C@@H](CC(=O)O)C(=O)N[C@@H](CC(C)C)C(=O)N[C@@H](CCCCN)C(=O)N[C@@H](CCC(=O)O)C(=O)N[C@@H](CC(C)C)C(N)=O)[C@@H](C)CC [EK1]
IC50: 0.308 µM
